By pKd is commonly meant the Kd on a negative log10 scale, so that one unit is a factor of ten.

Data set [1] concerns the target T1, recombinant RACK1A protein (Oryza sativa subsp. japonica, UniProt Q6L4F8).
T1 construct: His tag (C); made in house; host or cells: E. coli BL21(DE3)
The data set is described as follows: Surface Plasmon Resonance (SPR) binding assay. On the set-up: species or system rice. The following applies: immobilized recombinant RACK1A, KD50=kd/ka. The procedure:
SD-29 (left panel) and SD-29-12 (right panel) were separately injected three times on the CM5 chip at 0, 1.56 μM, at 3.13 μM, 6.25 μM, 12.5 μM, 25 μM, 50 μM, and 100 μM (top sensor) concentrations (left panel) and at 3.13 μM, 6.25 μM, 12.5 μM, 25 μM, 50 μM, and 100 μM (top sensor) concentrations (right panel).
To obtain in vitro confirmation of the binding of the isolated compounds to the purified RACK1 protein, the small compound SD-29 and its structural analog SD29-12 were evaluated for their binding potential with the recombinant RACK1A proteins using the Surface Plasmon Resonance (SPR) chip. SPR experiments were carried out with a Biacore T200 equipped with a CM5 sensor chip. Briefly, recombinant RACK1A cysteine-tagged protein was immobilized on flow cell (FC) 2 in HEPES buffered saline (10 mM Hepes, pH 7.4, and 150 mM NaCl, 3 mM CaCl2)) using a thiol-coupling kit according to the manufacturer's protocol, resulting in immobilization levels of 4580 response units (RU). FC1 was only activated and inactivated and used as a reference. SD-29 stock solution was diluted to a final concentration of 100, 75, 50, 25, 10 μM and 1 μM injected in 10 mM Hepes, 150 mM NaCl, 3 mM CaCl2), 1% DMSO, and 0.5% P20. Each injection was repeated three times for 60 s. […] KD50 is calculated by the equation: KD50=kd/ka; kd—dissociation rate constant, ka—association rate constant. […]

Another data set relates to RACK1A protein. The data set is described as follows: RACK1 protein expression under salt stress, western blot. Conditions: Arabidopsis lysates. In kind it is in vivo. An excerpt:
The abundant leaf protein Rubisco large subunit (RbcL) was used as a loading control for the blot. The 37 kD RACK1 band was absent from the genetic knockout of RACK1 plants (double mutant-rack1ab lane).
The reported positive expression of RACK1A protein under salt stress condition in Arabidopsis has led us to examine the RACK1A expression in the presence and absence of the inhibitor compounds during salt stresses. We determined that the RACK1A protein expression was specifically modulated by the inhibitor compounds when the lysates with salt or without salt in the presence and absence of the small compounds were probed with an antibody raised by using the full length RACK1A protein as antigen (Agrisera, Vännäs, Sweden, FIG. 2C). […] However, whether the effect of SD29-12 is Arabidopsis salt stress specific condition needs further experimental evidence. As the antibody cross-reacts with all three RACK1 isoforms in Arabidopsis, we used the double knockout (rack1ab) as a negative control on the blot (triple mutant is lethal at the early seedling stage). The large subunit of the abundant leaf protein rubisco (RbcL) was used as loading control for this blot. As the results support the in-silico based prediction, we set out to investigate the effect of the compounds on the mammalian RACK1 based virus proliferation.
On the technique in general: A western blot detects proteins with antibodies after separation by electrophoresis.

The next data set deals with HSV-1 ICP0. The data set is described as follows: Real-time RT-PCR of HSV-1 ICP0 transcript in HEp-2 cells. The data set is classed as cell-based. The following applies: 12 and 24 hpi, versus DMSO. The source says: The total transcript levels were quantified using actin expression as an internal control. The cDNA obtained immediately after the virus and drug transfection(s) was set as a baseline value. The normalized expression values were transformed to the log 10 value. The data plot represents mean t standard error calculated from three replicates.
Following instructions of the manufacturers, total RNA was isolated using Tri Reagent® (Ambion, Inc., Austin, Tex.). To quantitatively examine the mRNA level of HSV-1 ICP0 from the infected cells, real-time RT-PCR was undertaken using the QuantiTect SYBR Green RT-PCR kit (QIAGEN, Valencia, Calif.). […] Fluorescence (captured at 80° C.) was determined to be absent from the signal generated by primer dimers. Data were collected and recorded by the BIORAD CFX Manager software. The relative quantity of the ICP0 transcripts at the indicated time points was normalized to the relative quantity of the reference gene actin at the same time points and then the log10 copy number of the normalized RNA transcripts were calculated and presented on a bar chart. A melting temperature curve analysis was obtained by measuring (after the amplification cycles) the fluorescence during a period of warming from 60° C. to 95° C. […]

A further data set has as its system HSV-1. In words: Plaque formation unit (pfu) assay. The data set is classed as cell-based. The protocol:
The viral plaque assay was performed as previously described [Tang Q, Li L, Ishov A M, Revol V, Epstein A L, Maul G G. Determination of minimum herpes simplex virus type 1 components necessary to localize transcriptionally active DNA to ND10. J Virol. 2003; 77:5821-28.] with slight modifications. The HSV-1 strain 17 was diluted serially in a volume of 1 mL. Then 300 ul of the virus was added onto confluent HEp-2 cell monolayers in 12-well plates; each dilution had 3 wells. After adsorption for 2 h, the medium was removed and the cells were washed twice with serum-free DMEM and overlaid with phenol-free DMEM containing 5% FCS, 0.5% low-melting point agarose (GIBCO), and 1% penicillin-streptomycin. The cells were incubated at 37° C. for 48 hours. Neutral red was added on the agarose to stain the live cells. The plaques were counted and reported as pfu per mL. Mean pfu was determined after averaging the number of pfu from different dilutions. Student's t-tests were used to statistically analyze differences between the groups; a p-value lower than 0.005 was used as the threshold for a significant difference.
To assess the efficacy of SD-29 on the HSV-1 proliferation, a plaque assay was performed. We wanted to quantitatively assess whether SD-29 could inhibit viral replication. Because HSV-1 was able to enter cultured HEp-2 cells, we evaluated whether this entry led to productive virus replication.
In Table 1, confluent monolayers of HEp-2 cells were infected with serially diluted HSV-1 virus and were fixed and Giemsa stained at 0, 6, 12, and 24 hr post infection. The numbers of plaques were visualized. The number of plaques formed post infection decreased in the presence of SD-29 in a time-dependent manner.

Another data set has as its system HEp-2 cells. In words: Trypan blue exclusion cell viability. The following applies: 24-hour treatment. In kind it is cell-based. The protocol:
In order to assess whether the compounds are producing any toxicity that can led to the cell deaths, we evaluated the cell viability by the trypan blue exclusion method. As long-term inhibition of RACK1 expression has been reported to cell cycle arrest, we limited our experimental treatments to 24 h and evaluated the cell viability of almost full confluent cells after 24 h of compound treatment.
In table 2, the viability of cells was measured with Trypan blue exclusion assay in a Cellometer (Nexcelom, Lawrence, Mass.). The percentage survival of the compound treated cells was evaluated along with the DMSO treated cells. The values represent the mean±SE of three separate well based replicates.

Another data set concerns HSV1-Luc (R8411). The data set is described as follows: HSV1-Luc bioluminescence luciferase assay in HEp-2 cells. In kind it is cell-based, HSV-1. Conditions: 10 μM. The protocol: (A) Hep-2 cells were incubated with the indicated compounds in the presence of HSV1-Luc virus at a concentration of 4×10^6 pfu/ml media. (B) Quantification of the luciferase signal from the samples in panel (A). Signals from three replicates from two separate experiments were combined to generate the average and the standard error bar.
(§1) To 80-90% confluent HEp-2 cells, HSV-1-Luc (R8411) are added at a concentration of 2×10e^6 pfu/ml along with indicated concentration of inhibitor compounds. After the described incubation period, luciferase activity is evaluated from bioluminescence images acquired by a Perkin Elmer IVIS Spectrum Imaging system immediately after adding luciferase substrate (D-luciferin, Gold Bio Technology) at a concentration of 400 μg/mL in medium. Bioluminescence intensity in different wells is quantified in units of photons per second per centimetre squared per steradian (p/s/cm^2/sr) by drawing a polygonal region of interest over the signals in images using Living Image 3.0 software (Caliper Life Sciences).
as §1, with “cells, HSV1-Luc” for “cells, HSV-1-Luc”, “(R8411) was” for “(R8411) are”, “activity was” for “activity is”, “wells was” for “wells is”, “per centimeter” for “per centimetre”
To visualize the effect of the drugs on the proliferation of HSV-1, a luciferase tagged HSV-1 F strain expressing luciferase (R8411 mutant) under the control of ICP27 promoter was obtained [Horsburgh B C, Hubinette M M, Tufaro F. Genetic manipulation of herpes simplex virus using bacterial artificial chromosomes. Methods Enzymol. 1999; 306:337-52]. […] The same samples after incubation of 48 h were used to assay for HSV-1 ICP0 and RACK1 protein expression (B of FIG. 5). Depletion of RACK1 by the compounds correlated with the depletion of the viral ICP0 protein confirming earlier results shown in B of FIG. 3.

pKd: −log10 of the molar value.

T1 sequence (Q6L4F8 whole entry): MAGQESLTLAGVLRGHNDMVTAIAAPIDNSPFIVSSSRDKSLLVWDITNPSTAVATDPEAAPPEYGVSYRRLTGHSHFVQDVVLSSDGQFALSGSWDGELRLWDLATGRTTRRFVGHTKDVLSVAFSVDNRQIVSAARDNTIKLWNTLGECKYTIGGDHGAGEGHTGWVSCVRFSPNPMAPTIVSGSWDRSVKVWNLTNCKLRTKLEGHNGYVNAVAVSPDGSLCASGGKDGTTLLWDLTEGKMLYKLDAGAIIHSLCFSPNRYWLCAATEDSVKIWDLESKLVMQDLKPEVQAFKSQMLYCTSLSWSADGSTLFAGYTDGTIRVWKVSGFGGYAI

With `COc1ccc(-c2nnc(SCC(=O)O)n2N)cc1` [SD29-12], in data set [1], the pKd was 4.24. Besides, in the data set on RACK1A protein, the “RACK1 protein expression under salt stress” value is “not”. In addition, in the data set on HSV-1 ICP0, the “ICP0 mRNA level” value is “essentially showed the same level of ICP0 mRNA”. The Plaque formation unit is recorded as 0 ± 0 PFU/mL in the data set on HSV-1 (0 hpi), 3.8 ± 0.07 × 10^2 PFU/mL in the data set with HSV-1 (6 hpi), 3.6 ± 0.04 × 10^3 PFU/mL in the data set on HSV-1 (12 hpi) and 2.6 ± 0.03 × 10^6 PFU/mL in the data set with HSV-1 (24 hpi). Further, the “HEp-2 Cell viability, Mean” value in the data set with HEp-2 cells (10 μM) worked out at 92.7%; in the data set on HEp-2 cells (100 μM), 97.7%.

Regarding `Nc1nc2c(ncn2COCCO)c(=O)[nH]1` [acyclovir, reference compound], the HSV1-Luc proliferation result with HSV1-Luc (R8411) was “showed inhibition of the HSV1-Luc proliferation”.

Source of the values: US11596623B2, “Methods for treating virus infection or proliferation” (HOWARD UNIVERSITY, priority 2018, dated 2023).
